Results reported in patent publication US11096985B2, “Antimicrobial peptides, their variants and uses” (priority 2015, dated 2021).
Where a SMILES comes first, the peptide text is derived from it. [ ]: non-standard residue; d: D form.

Assays:
[1] = tested on: clinical strains of Escherichia coli; experiment: MIC, clinical strains of E. coli; format: cell-based; design: unit: μg/ml; conditions: microdilution, Muller Hinton broth-cation adjusted, 0.02% BSA, 0.2% acetic acid
Outline: (§1)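 MIC = lowest peptide concentration showing no visual growth after 20–24 h at 37° C. Range 0.125–128 μg/ml; bacteria at 5.0×10^5 cfu/ml in MH broth, polypropylene microdilution format; yeasts in potato dextrose broth.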

[2] = tested on: clinical strains of Klebsiella pneumoniae; experiment: MIC, clinical strains of K. pneumoniae; format: cell-based; design: unit: μg/ml; conditions: microdilution, Muller Hinton broth-cation adjusted, 0.02% BSA, 0.2% acetic acid
Outline: as §1

[3] = tested on: clinical strains of Pseudomonas aeruginosa; experiment: MIC, clinical strains of P. aeruginosa; format: cell-based; design: unit: μg/ml; conditions: microdilution, Muller Hinton broth-cation adjusted, 0.02% BSA, 0.2% acetic acid
Outline: as §1

[4] = tested on: clinical strains of Serratia marcescens; experiment: MIC, clinical strains of Serratia marcescens; format: cell-based; design: unit: µg/mL; conditions: microdilution, Muller Hinton broth-cation adjusted, 0.02% BSA, 0.2% acetic acid
Outline: as §1

[5] = tested on: clinical strains of Proteus mirabilis; experiment: MIC, clinical strains of Proteus mirabilis; format: cell-based; design: unit: µg/mL; conditions: microdilution, Muller Hinton broth-cation adjusted, 0.02% BSA, 0.2% acetic acid
Outline: as §1

[6] = tested on: clinical strains of Enterobacter cloacae; experiment: MIC, clinical strains of Enterobacter cloacae; format: cell-based; design: unit: μg/ml; conditions: microdilution, Muller Hinton broth-cation adjusted, 0.02% BSA, 0.2% acetic acid
Outline: as §1

[7] = tested on: clinical strains of Staphylococcus aureus; experiment: MIC, clinical strains of S. aureus; format: cell-based; design: unit: μg/ml; conditions: microdilution, Muller Hinton broth-cation adjusted, 0.02% BSA, 0.2% acetic acid
Outline: as §1

[8] = tested on: clinical strains of Streptococcus pneumoniae; experiment: MIC, clinical strains of Streptococcus pneumoniae; format: cell-based; design: unit: µg/mL; conditions: microdilution, Muller Hinton broth-cation adjusted, 0.02% BSA, 0.2% acetic acid
Outline: as §1

[9] = tested on: clinical strains of Acinetobacter baumannii; experiment: MIC, clinical strains of Acinetobacter baumannii; format: cell-based; conditions: microdilution, Muller Hinton broth-cation adjusted, 0.02% BSA, 0.2% acetic acid
Outline: as §1

[10] = tested on: clinical strains of Acinetobacter johnsonii; format: cell-based; conditions: Acinetobacter johnsonii clinical strain 1; microdilution, Muller Hinton broth-cation adjusted, 0.02% BSA, 0.2% acetic acid
Outline: as §1

[11] = tested on: clinical strains of Candida albicans; experiment: MIC, clinical yeast strains, Candida albicans; format: cell-based; design: unit: μg/ml
Outline: as §1

[12] = tested on: clinical strains of C. glabrata; experiment: MIC, clinical yeast strains, C. glabrata; format: cell-based, Candida glabrata; design: unit: μg/ml
Outline: as §1

[13] = tested on: clinical strains of C. parapsilosis; experiment: MIC, clinical yeast strains, C. parapsilosis; format: cell-based, Candida parapsilosis; design: unit: μg/ml
Outline: as §1

[14] = tested on: clinical strains of C. quillermondiae; experiment: MIC, clinical yeast strains, C. quillermondiae; format: cell-based; conditions: C. quillermondiae clinical yeast strain 1
Outline: as §1

## CC(C)C[C@@H](NC(=O)[C@H](N)CCCNC(=N)N)C(=O)N[C@H](CCCCN)C(=O)N[C@H](Cc1c[nH]c2ccccc12)C(=O)N[C@H](Cc1ccccc1)C(=O)N[C@H](CC(C)C)C(=O)N[C@H](CC(C)C)C(=O)N[C@H](Cc1ccccc1)C(=O)N[C@H](CCCNC(=N)N)C(=O)N[C@H](CCCCN)C(=O)N[C@H](CCCNC(=N)N)C(=O)O [Chain308D] (H-[dR][dL][dK][dW][dF][dL][dL][dF][dR][dK][dR]-OH)
[1]; Escherichia coli clinical strain 1
  Minimum inhibitory concentration: 1
[1]; Escherichia coli clinical strain 2
  Minimum inhibitory concentration: 0.5
[1]; Escherichia coli clinical strain 3
  Minimum inhibitory concentration: 1
[1]; Escherichia coli clinical strain 4
  Minimum inhibitory concentration: 1
[1]; Escherichia coli clinical strain 5
  Minimum inhibitory concentration: 1
[2]; Klebsiella pneumoniae clinical strain 1
  Minimum inhibitory concentration: 4
[2]; Klebsiella pneumoniae clinical strain 2
  Minimum inhibitory concentration: 4
[2]; Klebsiella pneumoniae clinical strain 3
  Minimum inhibitory concentration: 4
[2]; Klebsiella pneumoniae clinical strain 4
  Minimum inhibitory concentration: 4
[2]; Klebsiella pneumoniae clinical strain 5
  Minimum inhibitory concentration: 4
[3]; Pseudomonas aeruginosa clinical strain 1
  Minimum inhibitory concentration: 8
[3]; Pseudomonas aeruginosa clinical strain 2
  Minimum inhibitory concentration: 8
[3]; Pseudomonas aeruginosa clinical strain 3
  Minimum inhibitory concentration: 4
[3]; Pseudomonas aeruginosa clinical strain 4
  Minimum inhibitory concentration: 4
[3]; Pseudomonas aeruginosa clinical strain 5
  Minimum inhibitory concentration: 4
[4]; Serratia marcescens clinical strain 1
  Minimum inhibitory concentration: 128
[4]; Serratia marcescens clinical strain 2
  Minimum inhibitory concentration: 128
[4]; Serratia marcescens clinical strain 3
  Minimum inhibitory concentration: 64
[4]; Serratia marcescens clinical strain 4
  Minimum inhibitory concentration: >128
[4]; Serratia marcescens clinical strain 5
  Minimum inhibitory concentration: 128
[5]; Proteus mirabilis clinical strain 1
  Minimum inhibitory concentration: >128
[5]; Proteus mirabilis clinical strain 2
  Minimum inhibitory concentration: 32
[5]; Proteus mirabilis clinical strain 3
  Minimum inhibitory concentration: 128
[5]; Proteus mirabilis clinical strain 4
  Minimum inhibitory concentration: >128
[5]; Proteus mirabilis clinical strain 5
  Minimum inhibitory concentration: >128
[6]; Enterobacter cloacae clinical strain 1
  Minimum inhibitory concentration: 2
[6]; Enterobacter cloacae clinical strain 2
  Minimum inhibitory concentration: 2
[6]; Enterobacter cloacae clinical strain 3
  Minimum inhibitory concentration: 2
[6]; Enterobacter cloacae clinical strain 4
  Minimum inhibitory concentration: 2
[6]; Enterobacter cloacae clinical strain 5
  Minimum inhibitory concentration: 2
[7]; Staphylococcus aureus clinical strain 1
  Minimum inhibitory concentration: 1
[7]; Staphylococcus aureus clinical strain 2
  Minimum inhibitory concentration: 2
[7]; Staphylococcus aureus clinical strain 3
  Minimum inhibitory concentration: 1
[7]; Staphylococcus aureus clinical strain 4
  Minimum inhibitory concentration: 2
[7]; Staphylococcus aureus clinical strain 5
  Minimum inhibitory concentration: 2
[8]; Streptococcus pneumoniae clinical strain 1
  Minimum inhibitory concentration: 8
[8]; Streptococcus pneumoniae clinical strain 2
  Minimum inhibitory concentration: 4
[8]; Streptococcus pneumoniae clinical strain 3
  Minimum inhibitory concentration: 8
[8]; Streptococcus pneumoniae clinical strain 4
  Minimum inhibitory concentration: 2
[8]; Streptococcus pneumoniae clinical strain 5
  Minimum inhibitory concentration: 4
[9]; Acinetobacter baumannii clinical strain 1
  Minimum inhibitory concentration: 4
[9]; Acinetobacter baumannii clinical strain 2
  Minimum inhibitory concentration: 4
[9]; Acinetobacter baumannii clinical strain 3
  Minimum inhibitory concentration: 4
[9]; Acinetobacter baumannii clinical strain 4
  Minimum inhibitory concentration: 2
[9]; Acinetobacter baumannii clinical strain 5
  Minimum inhibitory concentration: 2
[10]
  Minimum inhibitory concentration: 4
[11]; Candida albicans clinical yeast strain 1
  Minimum inhibitory concentration: 16
[11]; Candida albicans clinical yeast strain 2
  Minimum inhibitory concentration: 16
[11]; Candida albicans clinical yeast strain 3
  Minimum inhibitory concentration: 16
[11]; Candida albicans clinical yeast strain 4
  Minimum inhibitory concentration: 16
[11]; Candida albicans clinical yeast strain 5
  Minimum inhibitory concentration: 16
[12]; C. glabrata clinical yeast strain 1
  Minimum inhibitory concentration: 16
[12]; C. glabrata clinical yeast strain 2
  Minimum inhibitory concentration: 16
[12]; C. glabrata clinical yeast strain 3
  Minimum inhibitory concentration: 16
[12]; C. glabrata clinical yeast strain 4
  Minimum inhibitory concentration: 16
[13]; C. parapsilosis clinical yeast strain 1
  Minimum inhibitory concentration: 8
[13]; C. parapsilosis clinical yeast strain 2
  Minimum inhibitory concentration: 8
[13]; C. parapsilosis clinical yeast strain 3
  Minimum inhibitory concentration: 8
[13]; C. parapsilosis clinical yeast strain 4
  Minimum inhibitory concentration: 4
[14]
  Minimum inhibitory concentration: 4
